Results: patent publication US11512085B2, “Heteroaryl compound having drug activity” (SHANGHAI DUDE MEDICAL TECHNOLOGY CO., LTD, priority 2017, dated 2022)

Assays:
p-PLCγ/t-PLCγ = assay: Western blotting of p-PLCγ/t-PLCγ in anti-IgG stimulated DOHH2 cells; format: cell-based; details: DOHH2 cells, 5, 100, 2000 nM, 1 h, anti-IgG stimulation
Experimental: (§1) Biological Embodiment 4: Analysis of Influences of Test Compounds on p-Btk/t-Btk, p-PLCγ/t-PLCγ and p-Erk/t-Erk Expression Levels of DOHH2 Cells by Virtue of Western Blotting
(§2) 1) DOHH2 cells on a logarithmic phase were collected;
(§3) 2) a cell concentration was adjusted to a needed concentration;
(§4) 3) 2 ml of cell suspension was added into a 6-well plate for performing culture, three different concentrations, that is, 5 nM, 100 nM and 2000 nM, of test samples were respectively set, and each concentration was repeated once;
(§5) 4) test samples were added into plate wells, and DMSO served as control, wherein a final concentration of the DMSO was 0.1%;
(§6) 5) culture was performed for 1 h; and […]
(§7) 6. protein extraction and quantification […]
(§8) 5) a protein concentration was determined by using Pierce™ BCA Protein Assay Kit; and
(§9) 6) according to BCA protein quantification results, all samples were diluted to the same final concentration by adding 4×LDS sample buffer and 10× sample reducing agent into the RIPA buffer solution, and the solution was heated at 100° C. for 10 min. […]
(§10) 10) chemiluminiscence was detected by Tanon 5200 multi.
(§11) 7. Quantification of strip intensity
(§12) Intensity of each strip was quantified by using Image quant densitometry software. […]

p-Btk/t-Btk = assay: Western blotting of p-Btk/t-Btk in anti-IgG stimulated DOHH2 cells; format: cell-based; details: DOHH2 cells, 5, 100, 2000 nM, 1 h, anti-IgG stimulation
Experimental: as §1, §2, §3, §4, §5, §6, §7, §8, §9, §10, §11, §12

Raji = assay: In vitro tumor cell proliferation (CellTiter-Glo), Raji; format: cell-based; details: Homo sapiens, 72 h, read-out: Growth IC50
Experimental: Biological Embodiment 8: Study on Effects of Active Compounds for Inhibiting In Vitro Tumor Cell Proliferation
Promega CellTiter-Glo cell activity detection kit by luminescence (Promega-G7573).
Tumor cell lines were cultured in a 5% of CO2 incubator at 37° C. according to respective culture conditions; and periodic passage was performed, and cells positioned in a logarithmic phase were taken for planking.
3) 90 μL of cell suspension was added into each well of the culture plate, and a culture solution containing no cell was added into blank control;
4) the culture plate was cultured overnight in the 5% of CO2 incubator having relative humidity of 100% at 37° C.
Preparation of a 400× compound storage plate: the compound was diluted from the maximum concentration gradient to the lowest concentration with DMSO. […]
The following steps were performed according to the specification of the Promega CellTiter-Glo cell activity detection kit by luminescence (Promega-G7573). […]
9) the luminescence signal was detected on the 2104 EnVision plate reader.

T cells = assay: T cell activation (CD3/CD28 dynabeads, CD69 staining); format: cell-based, Human; details: concentration of 10 uM
Experimental: Biological Embodiment 3: Influences of In-Vitro Test Compounds on PBMC/B/T Cell Activation
4.3 Isolation of B Cells and T Cells
Cell Isolation Programs Shall Refer to […] Kits
4.4.3 Activation of T Cells
The co-culture system is as follows:
Antibody Staining and Data Analysis
Antibody staining was performed within 24 hours […] according to a standard method.
4.5.2 Activation of T Cells
FITC Mouse Anti-Human CD4
PerCP-Cy™5.5 Mouse Anti-Human CD8
LIVE/DEAD Fixable Violet Dead Cell Stain Kit

`C=CC(=O)NN1CCCC(n2nc(-c3ccc(Oc4ccccc4)cc3)c3c(N)ncnc32)C1` (stereo not shown) [Embodiment 6, N-(3-(4-amino-3-(4-phenoxyphenyl)-1H-pyrazolo[3,4-D]pyrimidine-1-yl)-1-piperidyl)-acrylamide] was tested, and the “relative level of p-PLCγ/t-PLCγ” value (p-PLCγ/t-PLCγ) was “obviously decreased”, the “relative level of p-Btk/t-Btk” value (p-Btk/t-Btk) was “obviously decreased” and the IC50 (Raji) was over 10 µM. For the same compound, the “T cell activity inhibition effect” value (T cells) was “T cell activity inhibition effect”.
